One test addresses DYRK1A (Homo sapiens (Human), UniProt Q13627). The experiment in a line: DYRK1A activity Tau assay: pSer396 Tau in SH-SY5Y cells by ELISA / western blot. The format is cell-based. The conditions noted are these: overnight (16-18 h) exposure. In general terms: An ELISA detects its analyte on a solid surface through an enzyme-linked reagent.
Test [1] deals with Wnt activity (Wnt-responsive SP5 promoter luciferase reporter in SW480 cells). Kind of test: Wnt activity reporter assay: SW480 cells with SP5 promoter-driven firefly luciferase. Format: cell-based. The conditions noted are these: Homo sapiens, 24 h after compound addition, read-out: Wnt inhibition. The source says: The above synthesized compounds were screened using the assay procedure for Wnt activity described below.
Reporter cell lines were generated by stably transducing cells of cancer cell lines (e.g., colon cancer) with a lentiviral construct that include a Wnt-responsive promoter driving expression of the firefly luciferase gene.
Lentiviral constructs were made in which the SP5 promoter, a promoter having eight TCF/LEF binding sites derived from the SP5 promoter, was linked upstream of the firefly luciferase gene. The lentiviral constructs included a hygromycin resistance gene as a selectable marker. The SP5 promoter construct was used to transduce SW480 cells, a colon cancer cell line having a mutated APC gene that generates a truncated APC protein, leading to de-regulated accumulation of β-catenin.
Cultured SW480 cells bearing a reporter construct were distributed at approximately 10,000 cells per well into 384 well multiwell plates. Compounds were then added to the wells in half-log dilutions using a three micromolar top concentration. A series of control wells for each cell type received only buffer and compound solvent. Twenty-four hours after the addition of compound, reporter activity for luciferases was assayed, for example, by addition of the BrightGlo luminescence reagent (Promega) and the Victor3 plate reader (Perkin Elmer). Readings were normalized to DMSO only treated cells, and normalized activities were then used for the IC50 calculations.

Structures are written as SMILES. Bounds are passed on as bounds.

A word on the EC50: it is the concentration that produces a half-maximal response. A low value points to greater potency.

`CC(C)OCCCNC(=O)c1n[nH]c2ccc(-c3cccc(F)c3F)cc12` [Compound 1264, 5-(2,3-Difluorophenyl)-N-(3-isopropoxypropyl)-1H-indazole-3-carboxamide] registered a 50% effective concentration (EC50) at DYRK1A of 263 nM. In addition, the IC50 in test [1] was found to be 2100 nM.

`O=C(NCCN1CCCCC1)c1n[nH]c2ccc(-c3cccnc3)cc12` [Compound 1265, N-(2-(Piperidin-1-yl)ethyl)-5-(pyridin-3-yl)-1H-indazole-3-carboxamide]: the half-maximal effective concentration (EC50) on DYRK1A was found to be 17 nM. In test [1], the IC50 was 1200 nM.

In the case of `O=C(NCCN1CCOCC1)c1n[nH]c2ccc(-c3cccnc3)cc12` [Compound 1267, N-(2-Morpholinoethyl)-5-(pyridin-3-yl)-1H-indazole-3-carboxamide], the response on DYRK1A was half-maximal at 5 nM (EC50). Moreover, in test [1], the IC50 was 1500 nM.

Consider `CN1CC(NC(=O)c2n[nH]c3ccc(-c4cccc(F)c4F)cc23)C1` [Compound 1272, 5-(2,3-Difluorophenyl)-N-(1-methylazetidin-3-yl)-1H-indazole-3-carboxamide], for which, on DYRK1A, the EC50 is 56 nM. In addition, the IC50 in test [1] came to 2200 nM.

Take `CC(C)CN1CC(NC(=O)c2n[nH]c3ccc(-c4cncc(Cl)c4)cc23)C1` [Compound 1273, 5-(5-Chloropyridin-3-yl)-N-(1-isobutylazetidin-3-yl)-1H-indazole-3-carboxamide]: at DYRK1A, the EC50 was 23 nM. The IC50 in test [1] turned out to be 3300 nM.

For `CC(C)CN1CC(NC(=O)c2n[nH]c3ccc(-c4cncc(C(F)F)c4)cc23)C1` [Compound 1274, 5-(5-(Difluoromethyl)pyridin-3-yl)-N-(1-isobutylazetidin-3-yl)-1H-indazole-3-carboxamide], it took 20 nM to reach a half-maximal effect on DYRK1A (EC50). Also, in test [1], the IC50 was 1200 nM.

`CC(C)CN1CC(NC(=O)c2n[nH]c3ccc(-c4cncc(F)c4)cc23)C1` [Compound 1275, 5-(5-Fluoropyridin-3-yl)-N-(1-isobutylazetidin-3-yl)-1H-indazole-3-carboxamide]: at DYRK1A, the EC50 was 28 nM. Besides, the IC50 in test [1] is 2700 nM.

Turning to `CN1CCC2(CC1)CC(NC(=O)c1n[nH]c3ccc(-c4cncc(Cl)c4)cc13)C2` [Compound 1276, 5-(5-Chloropyridin-3-yl)-N-(7-methyl-7-azaspiro[3.5]nonan-2-yl)-1H-indazole-3-carboxamide], a half-maximal response on DYRK1A (EC50) required 7 nM. The IC50 in test [1] stood at 5200 nM.

In turn, `CN1CCC2(CC1)CC(NC(=O)c1n[nH]c3ccc(-c4cccc(F)c4F)cc13)C2` [Compound 1278, 5-(2,3-Difluorophenyl)-N-(7-methyl-7-azaspiro[3.5]nonan-2-yl)-1H-indazole-3-carboxamide] registered an EC50 on DYRK1A of 14 nM. In addition, in test [1], the IC50 is 5500 nM.

As for `O=C(NC1CCC(F)(F)CC1)c1n[nH]c2ccc(-c3cccnc3)cc12` [Compound 1283, N-(4,4-Difluorocyclohexyl)-5-(pyridin-3-yl)-1H-indazole-3-carboxamide], a half-maximal response on DYRK1A (EC50) required 2 nM. The IC50 in test [1] is 1300 nM.

`N[C@H]1CC[C@@H](NC(=O)c2n[nH]c3ccc(-c4cccnc4)cc23)CC1` [Compound 1285, N-((1s,4s)-4-Aminocyclohexyl)-5-(pyridin-3-yl)-1H-indazole-3-carboxamide]: it took 35 nM to reach a half-maximal effect at DYRK1A (EC50). The IC50 in test [1] is > 10000 nM.

For `N[C@H]1CC[C@H](NC(=O)c2n[nH]c3ccc(-c4cccnc4)cc23)CC1` [Compound 1286, N-((1r,4r)-4-Aminocyclohexyl)-5-(pyridin-3-yl)-1H-indazole-3-carboxamide], the concentration giving a half-maximal response (EC50) on DYRK1A was 2 nM. Moreover, the IC50 in test [1] was found to be 3700 nM.

As for `CN(C)[C@H]1CC[C@@H](NC(=O)c2n[nH]c3ccc(-c4cccnc4)cc23)CC1` [Compound 1287, N-((1s,4s)-4-(Dimethylamino)cyclohexyl)-5-(pyridin-3-yl)-1H-indazole-3-carboxamide], at DYRK1A, the response was half-maximal at 37 nM (EC50). Besides, the IC50 in test [1] is > 10000 nM.

`CN(C)[C@H]1CC[C@H](NC(=O)c2n[nH]c3ccc(-c4cccnc4)cc23)CC1` [Compound 1288, N-((1r,4r)-4-(Dimethylamino)cyclohexyl)-5-(pyridin-3-yl)-1H-indazole-3-carboxamide] gave a half-maximal effective concentration (EC50) on DYRK1A of 1 nM. In test [1], the IC50 stood at 1370 nM.

Compound `CCN1CCC(NC(=O)c2n[nH]c3cc(F)c(-c4cncc5ccccc45)cc23)CC1` [Compound 1293, N-(1-Ethylpiperidin-4-yl)-6-fluoro-5-(isoquinolin-4-yl)-1H-indazole-3-carboxamide] returned an EC50 at DYRK1A of 210 nM. Moreover, the IC50 in test [1] was determined as 2130 nM.

Take `O=C(NC1CCN(CCF)CC1)c1n[nH]c2ccc(-c3cncc4ccccc34)cc12` [Compound 1297, N-(1-(2-Fluoroethyl)piperidin-4-yl)-5-(isoquinolin-4-yl)-1H-indazole-3-carboxamide]: on DYRK1A, the EC50 stood at 30 nM. For the same compound, the IC50 in test [1] was found to be 2200 nM.

`O=C(NC1CCN(CC(F)F)CC1)c1n[nH]c2ccc(-c3cncc(F)c3)cc12` [Compound 1298, N-(1-(2,2-Difluoroethyl)piperidin-4-yl)-5-(5-fluoropyridin-3-yl)-1H-indazole-3-carboxamide] had a 50% effective concentration (EC50) at DYRK1A of 28 nM. In addition, the IC50 in test [1] worked out at 1200 nM.

On DYRK1A, `CC(C)(F)CN1CCC(NC(=O)c2n[nH]c3ccc(-c4cccnc4)cc23)CC1` [Compound 1309, N-(1-(2-Fluoro-2-methylpropyl)piperidin-4-yl)-5-(pyridin-3-yl)-1H-indazole-3-carboxamide] displayed an EC50 of 7 nM. Further, the IC50 in test [1] amounted to 2260 nM.

As to `O=C(NC1CCN(CC2CC2)CC1)c1n[nH]c2ccc(-c3cncc(Cl)c3)cc12` [Compound 1313, 5-(5-Chloropyridin-3-yl)-N-(1-(cyclopropylmethyl)piperidin-4-yl)-1H-indazole-3-carboxamide], at DYRK1A, the concentration for a half-maximal effect (EC50) was 33 nM. In addition, in test [1], the IC50 was 1800 nM.

Compound `NC1CN(c2cncc(-c3ccc4[nH]nc(C(=O)Nc5cccc(F)c5)c4c3)n2)C1` [Compound 1318, 5-(6-(3-Aminoazetidin-1-yl)pyrazin-2-yl)-N-(3-fluorophenyl)-1H-indazole-3-carboxamide] returned a concentration for a half-maximal effect (EC50) on DYRK1A of 6 nM. The IC50 in test [1] was determined as 4000 nM.

For the compound `O=C(Nc1ccc(CN2CCCC2)cc1)c1n[nH]c2ccc(-c3cccc(F)c3F)cc12` [Compound 1327, 5-(2,3-Difluorophenyl)-N-(4-(pyrrolidin-1-ylmethyl)phenyl)-1H-indazole-3-carboxamide], the concentration giving a half-maximal response (EC50) at DYRK1A was 31 nM. Also, in test [1], the IC50 was 1500 nM.

As for `O=C(Nc1ccc(CN2CCCC2)cc1)c1n[nH]c2ccc(-c3cncnc3)cc12` [Compound 1328, 5-(Pyrimidin-5-yl)-N-(4-(pyrrolidin-1-ylmethyl)phenyl)-1H-indazole-3-carboxamide], a half-maximal response at DYRK1A (EC50) required 4 nM. Also, the IC50 in test [1] amounted to 3700 nM.

At DYRK1A, `O=C(Nc1ccc(CN2CCCC2)cc1)c1n[nH]c2ccc(-c3cncc(F)c3)cc12` [Compound 1329, 5-(5-Fluoropyridin-3-yl)-N-(4-(pyrrolidin-1-ylmethyl)phenyl)-1H-indazole-3-carboxamide] registered an EC50 of 1 nM. In test [1], the IC50 was 1700 nM.

As for `O=C(Nc1ccc(CN2CCCC2)cc1)c1n[nH]c2ccc(-c3cncc(Cl)c3)cc12` [Compound 1330, 5-(5-Chloropyridin-3-yl)-N-(4-(pyrrolidin-1-ylmethyl)phenyl)-1H-indazole-3-carboxamide], the EC50 at DYRK1A turned out to be 3 nM. The IC50 in test [1] worked out at 5500 nM.

For the origin of these results see patent publication US10669240B2, “5-substituted indazole-3-carboxamides and preparation and use thereof” (Samumed, LLC, priority 2014, dated 2020).
